Measured values as given in paper PMC10439158, “The net electrostatic potential and hydration of ABCG2 affect substrate transport” (Nature Communications, 2023).
Numbering of substitutions follows the chain as printed.

Experiments:
ABCG2 [1] = target: T1, ABCG2 (Homo sapiens, UniProt Q9UNQ0); test: biochemical; design: full-length ABCG2-WT in membrane vesicles; species or system ABCG2 membrane vesicles; Hoechst 33342 concentration-dependent thermal stabilization of ABCG2, western blot read-out, without ATP; details: thermal stabilization, without ATP
T1 sequence (Q9UNQ0 1-655): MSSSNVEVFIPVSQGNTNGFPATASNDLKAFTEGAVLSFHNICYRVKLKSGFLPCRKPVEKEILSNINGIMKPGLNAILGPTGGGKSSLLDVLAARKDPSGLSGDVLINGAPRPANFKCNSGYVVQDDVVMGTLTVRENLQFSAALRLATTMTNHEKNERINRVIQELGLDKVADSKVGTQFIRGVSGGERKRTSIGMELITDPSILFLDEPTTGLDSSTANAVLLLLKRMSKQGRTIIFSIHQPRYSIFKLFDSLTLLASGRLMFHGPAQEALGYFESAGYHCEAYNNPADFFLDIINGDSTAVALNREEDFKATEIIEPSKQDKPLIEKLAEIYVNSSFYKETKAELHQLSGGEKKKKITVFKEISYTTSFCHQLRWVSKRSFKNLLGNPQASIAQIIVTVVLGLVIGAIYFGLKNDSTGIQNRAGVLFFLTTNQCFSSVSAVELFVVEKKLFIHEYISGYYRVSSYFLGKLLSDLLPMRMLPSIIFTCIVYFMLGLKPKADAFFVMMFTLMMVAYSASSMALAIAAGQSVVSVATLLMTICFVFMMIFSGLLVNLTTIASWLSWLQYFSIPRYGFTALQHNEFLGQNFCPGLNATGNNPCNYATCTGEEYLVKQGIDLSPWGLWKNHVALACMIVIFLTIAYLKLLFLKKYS

ABCG2 [2] = target: T2, ABCG2 (Homo sapiens, UniProt Q9UNQ0); test: isothermal shift assay on membranes; inhibition of vanadate-sensitive ATPase in membranes; transport assay; format: biochemical
T2 construct: full-length ABCG2-WT in membrane vesicles

ABCG2 E211Q = target: T3, ABCG2 E211Q (Homo sapiens, UniProt Q9UNQ0, E211Q); test: biochemical; design: species or system ABCG2 membrane vesicles; Hoechst 33342 concentration-dependent thermal stabilization of ABCG2, western blot read-out, without ATP; details: thermal stabilization, without ATP
T3 construct: full-length ABCG2-WT in membrane vesicles
T3 sequence (Q9UNQ0 1-655 E211Q): T1 sequence (Q9UNQ0 1-655) with E211Q
Description: (§1) The difference between ABCG-WT and ABCG2-N436A was not due to a difference in Hoechst 33342 initial uptake, given that the initial rate of uptake was linear and the slopes virtually identical for ABCG2-WT and ABCG2-N436A (Fig. 1d). The steady-state level of Hoechst 33342 was twofold lower in ABCG2-N436A cells (Fig. 1d). Steady-state drug levels represent an equilibrium between uptake and efflux rates, which can be used to estimate the rate of drug efflux. The twofold lower steady-state level of Hoechst 33342 in cells expressing ABCG2-N436A, therefore, indicates an estimated twofold increase in efflux (Fig. 1d). Direct monitoring of Hoechst 33342 efflux is not possible because of its avidity for binding to the minor groove of DNA, leaving little free Hoechst 33342 available for assessing efflux. This effect is also responsible for Hoechst 33342’s cytotoxicity, a property that we utilized as an additional approach to assess ABCG2 transport activity. […] The greater reduction in Hoechst 33342 cytotoxicity in ABCG2-N436A may be because Hoechst 33342 cytotoxicity occurs by a dual process of DNA binding and topoisomerase inhibition, both of which promote cytotoxic DNA damage. […] Consistent with the lower EC50 value of ATP (0.3 mM) for ABCG2-N436A, ABCG2-N436A was thermally stabilized by the non-hydrolyzable ATP analog AMP-PNP at lower concentrations than ABCG2-WT

ABCG2 K86M = target: T4, ABCG2 K86M (Homo sapiens, UniProt Q9UNQ0, K86M); test: biochemical; design: species or system ABCG2 membrane vesicles; Hoechst 33342 concentration-dependent thermal stabilization of ABCG2, western blot read-out, without ATP; details: thermal stabilization, without ATP
T4 construct: full-length ABCG2-WT in membrane vesicles
T4 sequence (Q9UNQ0 1-655 K86M): T1 sequence (Q9UNQ0 1-655) with K86M
Description: as §1

ABCG2 [3] = target: T1, ABCG2; format: cell-based; design: full-length ABCG2-WT in membrane vesicles / MEF cells
ABCG2 [4] = target: T1, ABCG2; test: cell-based; design: full-length ABCG2-WT in MEF cells; species or system MEF (mouse embryonic fibroblasts) expressing human ABCG2-WT; Inhibition of ABCG2-mediated Hoechst 33342 transport; intracellular Hoechst 33342 fluorescence accumulation; details: ABCG2-WT, 0.5 uM Hoechst 33342; read-out: Hoechst 33342 transport inhibition IC50
Method: The intracellular accumulation of fluorescent Hoechst 33342, pheophorbide a, chlorin e6, and purpurin 18, ABCG2 substrates, was used to determine the function of ABCG2. For Hoechst 33342 accumulation assay, MEFs were seeded into a 96-well black clear bottom plate (Corning #3603) at 20,000 cells/well and 0.5 μM Hoechst 33342, and either [compound left out] or the test inhibitor (0.002–10 μM) were added to the culture medium followed by incubation for 2 h at 37 °C in the dark. Thereafter, the medium was removed, and cells were washed twice with 200 μL ice-cold PBS and the fluorescence of Hoechst 33342 was then quantitatively determined with a Synergy H4 microplate reader (BioTek, Winooski, VT, USA) at an excitation wavelength of 355 nm and an emission wavelength of 460 nm. The accumulation of Hoechst 33342 was normalized to protein concentration as determined using the BCA Protein Assay Kit (Pierce, Rockford, IL, USA). […] The intracellular accumulation of pheophorbide a, purpurin 18, or chlorin e6 was measured at an excitation wavelength of 405 nm and an emission wavelength of 667 nm. […] The total radioactivity was measured by liqu Fig. 4 N436A substitution affects inhibitor interaction. a–d Representative snapshots from MDS of tariquidar interacting with ABCG2. a ABCG2-WT with residues within 4 Å of tariquidar are in surface representation. […]

Row | SMILES | EC50 (ABCG2 [1]) | IC50 (ABCG2 [2]) | EC50 (ABCG2 E211Q) | EC50 (ABCG2 K86M) | isothermal shift assay on membranes; Hoechst 33342 transport inhibition; 5D3 shi (ABCG2 [3]) | IC50 (ABCG2 [4])
1 | CCOc1ccc(-c2nc3cc(-c4nc5cc(N6CCN(C)CC6)ccc5[nH]4)ccc3[nH]2)cc1 [Hoechst 33342] | 8.8 ± 1.9 µM | 35 µM | 16 ± 3 µM | 31 ± 1 µM | – | –
2 | COc1cc2c(cc1OC)CN(CCc1ccc(NC(=O)c3cc(OC)c(OC)cc3NC(=O)c3cnc4ccccc4c3)cc1)CC2 [tariquidar] | – | – | – | – | ABCG2 inhibitors, Ko143, tariquidar, and lapatinib, strongly and dose-dependently thermally stabilized ABCG2-WT | 0.08 µM
